The record followed here is patent publication US20140288110A1, “PPAR MODULATORS” (EVOLVA SA, priority 2006, published 2014).

What all share (type): cell-based
The test system of experiment [1] is PPARgamma ligand-binding domain (Gal4-PPARgammaLBD). In words: PPARgamma transactivation assay (Gal4-PPARgammaLBD, UASx4-TK luc reporter). An excerpt:
This is an example of a transactivation assay for determining PPAR gamma modulating activity.
The UASx4-TK-luc reporter construct (where UAS refers to “upstream activator sequence”) contains four Gal4-responsive elements. The plasmid Gal4-PPARgammaLBD encodes a Gal4-DBD-PPARgamma-LBD fusion protein (i.e. the DNA-binding domain, DBD, of Gal4 fused to the ligand-binding domain, LBD, of PPARgamma) capable of transactivating the UASx4-TK-luc reporter plasmid by binding to the UAS. The CMV-beta-galactosidase plasmid (where CMV is cytomegalovirus) is used for normalization of experimental values.
The cells were replated, typically in 24 well plates, so that at the time of transfection the cells are 50-70% confluent.
Briefly, per well in a 24 well plate, UASx4TKluc (0.2 microg) Gal4-PPARgammaLBD (or pM-hPPARgamma-LBD; 0.1 microg) and CMV-beta-galactosidase (0.05 microg) in 30 μL DMEM (free of serum and antibiotics) is mixed with 30 microL DMEM (free of serum and antibiotics) containing 1 microL metafectenein. The mixture is incubated at room temperature for 20 min to allow formation of nucleic acid-lipid complexes and then approximately 60 microL is added to each well containing the 50-60% confluent cells. […] Cells were harvested after 12-24 hours and luciferase and beta-galactosidase activities were measured according to standard protocols.
“−” means that testing was not performed.

Another experiment deals with 3T3-L1 preadipocytes. The experiment can be described thus: Glucose uptake assay. Details: dose or concentration left out as unconfirmed. Particulars: SN1. As to the method: Glucose uptake assays are important to establish the suitability of a compound for the treatment of insulin resistance.
Briefly, 3T3-L1 preadipocytes are grown in 12-well plates until confluence. Cells are washed with serum-free DMEM and incubated with 1 ml of the same medium at 37° C. for 1-2 h. The cells are then washed with […] (KRP) buffer and then incubated with 0.9 ml KRP buffer at 37° C. for 30 min. Insulin is added to the cells at 0, 0.3, 1 and 3 nM final concentration and incubated for 15 min at 37° C. Glucose uptake is initiated by the addition of 0.1 ml of Krebs-Ringer phosphate (KRP) buffer supplemented with 10 mM [^3H] 2-deoxy-D-glucose (1 mCi/l). After a 10 minute incubation at 37° C., the medium is aspirated and plates washed with ice-cold PBS to terminate the induced glucose uptake. The cells are lyzed with 0.5 ml 1% Triton X-100 and radioactivity levels determined using a scintillation counter. The results are depicted in FIG. 7.

For another experiment, the system named is 3T3-L1 cells. In words: Adipocyte differentiation assay, inhibition, Oil Red O staining. The method, then: To test compounds as inhibitors of adipocyte differentiation, 3T3-L1 cells are grown as above until two-day postconfluence (designated day 0), after which the cells are induced to differentiate with DMEM containing 10% fetal bovine serum (FBS), 1 μM dexamethasone (Sigma), 0.5 mM methylisobutylxanthine (Sigma), 1 μg/ml insulin (Roche Molecular Biochemicals) and the test-compound. Cells induced to differentiate in presence of solvent of the test-compounds are used as positive control. After 48 h, the cells are re-fed with DMEM containing 10% FBS supplemented with the test compound or the positive control. From day 4, cells are grown in DMEM with 10% FBS and are changed every second day until day 8. At day 8, cells are stained with Oil Red O as described below.
Cells cultured as described above are used for Oil Red staining. Dishes are washed in PBS and cells were fixed in 3.7% paraformaldehyde for 1 h and stained with oil red O as described in (Hansen et al 1999). Oil red O solution stock solution is prepared by dissolving 0.5 g of Oil Red O (Sigma) in 100 ml of isopropanol. Oil re O working solution is prepared by diluting a stock solution with water (6:4) followed by filtration.

The target of another experiment is T1, mPPARdeltaLBD (Mus musculus, UniProt P35396).
T1 construct: expressed in transfected cells
T1 sequence (P35396 210-438 limits assumed): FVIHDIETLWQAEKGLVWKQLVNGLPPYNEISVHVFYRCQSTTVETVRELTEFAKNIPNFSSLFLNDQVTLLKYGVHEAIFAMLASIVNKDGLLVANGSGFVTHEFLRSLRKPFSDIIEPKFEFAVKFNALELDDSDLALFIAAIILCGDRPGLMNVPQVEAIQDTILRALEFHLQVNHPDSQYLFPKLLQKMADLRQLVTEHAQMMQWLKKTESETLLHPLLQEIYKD
The experiment can be described thus: PPARdelta transactivation assay (mPPARdeltaLBD). The method, then: This example describes a transactivation assay for determining PPARdelta modulating activity.
DPD and other ligands are tested for their ability to transactivate PPARdelta essentially as described in Example 1.

SMILES strings stand for the structures.

Consider `O=C(O)CC/C=C\C[C@@H]1CO[C@H](c2ccccc2Cl)O[C@@H]1c1ccccc1O` (racemic) [SN1, 4-(Z)-6-(2-o-chlorophenyl-4-o-hydroxyphenyl-1,3-dioxan-cis-5-yl) hexenoic acid], for which the “PPAR gamma modulating activity, in words” value in experiment [1] was “PPAR gamma agonist”. Further, the “glucose uptake compared with Avandia” value with 3T3-L1 preadipocytes is “same level of glucose uptake”. Moreover, the “inhibition of adipocyte differentiation” value in the experiment with 3T3-L1 cells was “no significant effect”. On mPPARdeltaLBD, the “increase of PPAR delta transactivation” value is “no or little increase in transactivation”.
